Assay results published in US4514330A, “Carbon-7-substituted atinomycin D analogue” (Trustees of Boston University, priority 1983, dated 1985).
Converted amounts (≈) assume the structure as drawn. Read-outs that look alike come from different tables or passages of the source. Starred links: 1 amine or outer side, 2 acyl side, 3 side chain; linkers in the order of their positions; H or OH if unused. Positions of bridges follow the written chain, without caps; N, C: chain ends. Non-standard residues stand in square brackets, D forms with d. Residues, ends and D or L forms follow the SMILES beside them. Chains are numbered I, II in the order given. Actinocin(9to1) = Cc1c2oc3c(C)ccc(C(=O)[*:1])c3nc-2c(C(=O)[*:2])c(N)c1=O; NMeV = CN[C@H](C(=O)O)C(C)C; Sar = CNCC(=O)O

Experiments:
[1] = tested on: spleen, liver, kidney, large and small intestine, heart, lung, pancreas and adrenals; assay: Gross pathology of organ sections at LD10 (MTD) dose levels, day 14; format: in vivo, CDF1 mice
Experimental: In an additional experiment, two animals at LD10 (or MTD) dose levels were sacrificed on day 14, and the organ sections from these animals were evaluated for gross pathology in the following way. Organs, e.g., spleen, liver, kidney, large and small intestine, heart, lung, pancreas and adrenals, were removed and fixed in 10% […] buffer formalin. They were kept immersed for 2 weeks; tissues were dehydrated through graded alcohols (70, 90, 95 and 100%), cleared in cedarwood oil and embedded in paraffin. Sections were cut in 7 μm and mounted with gelatin on microscope slides. After drying, sections were stained with Mayer's hematoxylin and eosin and examined with light microscopy.

normal CDF1 male mice = assay: Maximum tolerated dose (LD10) in normal, tumor-free CDF1 male mice; format: in vivo; details: deaths during 21 days
Experimental: ^c MTD (maximum tolerated dose) is the lethal dose
(milligrams/kilogram) for 10% normal CDF1 male mice (18-23 g);
were calculated from a plot of log dose vs. percent mortality. Average of
two to three experiments.
Biological Experiments. Determination of LD10 Values. Tumor-free CDF1 male mice weighing 18-23 g were given a broad range of doses of drugs in 10% dimethyl sulfoxide-saline on either days 1, 5 and 9 or on 4 successive days. Drugs were administered intraperitoneally (ip).
The maximum tolerated doses of AMD and analogues that caused deaths in only 10% of the tested animals in 21 days were recorded as MTD. The results are an average of two experiments in each. The MTD values obtained following schedules q4d 1, 5, 9 (three injections) and qd 1-4 (four injections) are recorded in Table IV. These doses are the same as LD10 (lethal dose of 10% of tumor-free animals in 21 days).

[2] = tested on: Wilm's tumor, gestational choriocarcinoma, and Kaposi's sarcoma; details: cited from earlier work
[3] = tested on: DNA-dependent RNA synthesis; details: submicromolar concentrations; cited from earlier work
proliferating cells = details: cited from earlier work
DNA [4] = details: known analogues; cited from earlier work
[5] = cited from earlier work
P-388 leukemia = assay: In vivo antitumor activity against P-388 lymphocytic leukemia in CDF1 mice; details: for % ILS (percent increase in life span) / MST (median survival time) / cure (over 55 day survivors): days 1, 5, 9; for minimal effective dose: Mus musculus, P388, ip, read-out: MED (minimum effective dose, 40% increase in life span over control)
Experimental: Studies on in vivo activity of AMD and AMD analogues were carried out with P-388 lymphocytic leukemia in CDF1 hybrid mice. The drugs were administered either daily for 4 successive days (qd 1-4) or on days 1, 5 and 9 (q4d 1, 5, 9) beginning 1 day after tumor implantation.
^a Male CDF1 (18-23 g) mice were inoculated intraperitoneally
(ip) with 10^6 P388 cells on day 0. Drugs were administered, also ip,
in 10% dimethyl sulfoxidesaline on days 1, 5 and 9. Test solutions were
kept at 0-4° C., protected from light, and the stability and
homogeneity were checked periodically by TLC and HPLC.
^b MST = median survival time.
^c % ILS = percent increase in life span.
^d Over 55 day survivors. Average of three experiments. The
^a Drugs administed ip once daily either for 4 successive days (qd
1-4) or on days 1, 5 and 9 (q4d 1, 5 9), starting 1 day after tumor
^b MED (minimum effective dose) is the dose (milligrams/kilogram)
providing an increase in life span of 40% over control in P388

patients = details: attributed to lack of metabolism / excretion; listed as AMD; cited from earlier work
[6] = tested on: human lymphoblastic leukemic cells (CCRF-CEM); assay: In vitro growth-inhibitory activity against human lymphoblastic leukemic cells (CCRF-CEM) in log phase; format: cell-based; details: Homo sapiens, final growth medium contained 1% Me2SO, log phase, read-out: ID50 (in vitro growth inhibition, CCRF-CEM)
Experimental: ^b Using human lymohoblastic leukemia cells in logplastic growth.
Compounds were dissolved in Me2 So medium, final growth medium

DNA [7] = assay: Thermal denaturation of DNA (ΔTm), stabilization of DNA helical structure on drug binding; parameters: species or system calf thymus
Experimental: Thermal denaturation studies were carried out according to the procedure described in J. Med. Chem., Vol. 24, p. 1052 (1981). The ΔTm values in Table II give a measure of stabilization of DNA helical structure as a consequence of drug binding.
^a ΔTm = m of DNAdrug complex minus m of DNA.
Concentraiton of drug, 1.4 × 10^-4 M; of DNA (P), 1.4 ×
10^-3 M in 0.01 M phosphate buffer (pH 7.0), 5 × 10^-3 M in
EDTA and 5% dimethyl sulfoxide.
^d Highest dose tested. These values are derived at high temperatur
(67°-75° C.) and may not always correlate with the results
of other DNA-binding studies (e.g., absorptiometric or circular dichroic).
Melting points were obtained with a Thomas-Hoover melting point apparatus at a heating rate of 2° C./min. Column chromatography was accomplished with silica gel powder (Baker No. 3405, 60-20 mesh) or acid alumina (Woelm grade 1). Limited gel-filtration work was done on Sephadex LH-20, particle size 25-100 μm (Pharmacia Fine Chemicals). Thin-layer chromatography was performed on silica gel plates (E. M. Laboratories, Inc.). Solvent systems used were (A) butanol-formic acid-H2 O (75:13:12), (B) EtOAc-acetone (3:1), and (C) Cifferri, the organic phase of the mixture EtOAc-MeOH-H2 O (20:1:20). High-performance liquid chromatography was carried out on a Varian Model 5020 gradient liquid chromatograph equipped with CD-111L chromatography data system and fitted with Varian reversed-phase C18 column with isocratic solvent systems, CH3 -CN-5 mM NH4 OAc buffer, pH 6.4 (68:32 or 62:38), pressure 80-140 atm, flow rate 1.5 mL/min, with UV-visible variable and fixed wavelength dual detectors at 254 and 466 nm. Spectra were determined on the following instruments: IR spectra were obtained with a Perkin-Elmer Model 237 Infra Cord with KBr micropellets or chloroform solutions; UV-visible spectra were obtained on a Gilford 250 spectrophotometer, which, with the addition of a base-line reference compensator (Analog Multiplexer 6064) and thermoprogrammer, auto four cell programmer and thermoelectric cell holder 2577, was used to obtain thermal denaturation curves; NMR spectra were obtained on a JOEL FQ-90-90MHZ spectrometer equipped with Fourier transform; and CD spectra were obtained on a Cary 61 spectrophotometer. All elemental analyses were within ±0.4% of the theoretical values. Actinomycin D, batch no. NCS 3053, lot L554651-0-10, was provided by Natural Products Branch, National Cancer Institute, Silver Spring, Md. Calf thymus DNA type 1 was purchased from Sigma Chemical Co.

[8] = three injections ip, q4d 1, 5, 9

## Cc1c2oc3c(C)ccc(C(=O)N[C@@H]4C(=O)N[C@H](C(C)C)C(=O)N5CCC[C@H]5C(=O)N(C)CC(=O)N(C)[C@@H](C(C)C)C(=O)O[C@@H]4C)c3nc-2c(C(=O)N[C@@H]2C(=O)N[C@H](C(C)C)C(=O)N3CCC[C@H]3C(=O)N(C)CC(=O)N(C)[C@@H](C(C)C)C(=O)O[C@@H]2C)c(N)c1=O [Compound 1b, Actinomycin D, reference compound] (I: T[dV]P[Sar][NMeV] / II: T[dV]P[Sar][NMeV]; ester I:1-I:C, II:1-II:C; linker I:N-II:N via Actinocin(9to1))
[1]
  pathology of spleen sections: haematopoiesis indicative of bone-marrow toxicity
Normal CDF1 male mice; four injections ip, qd 1-4
  MTD (maximum tolerated dose, lethal for 10% of normal mice; = LD10): 0.15 milligrams/kilogram
Normal CDF1 male mice; [8]
  MTD (maximum tolerated dose, lethal for 10% of normal mice; = LD10): 0.25 milligrams/kilogram
[2]
  activity in several tumors: potent activity
[3]
  inhibition of DNA-dependent RNA synthesis: strongly inhibits
Proliferating cells
  cytotoxicity in proliferating cells versus nonproliferating (liver, kidney, muscle): far more cytotoxic in those proliferating cells
DNA [4]
  mode of DNA binding, same way as AMD: by intercalation of the chromophore and concomitant hydrogen and hydrophobic interactions of the peptide lactones
[5]
  in vivo metabolism: not metabolized in vivo
P-388 leukemia; 0.031 mg/kg ip
  % ILS (percent increase in life span): 18%
  MST (median survival time): 13 days
  cure (over 55 day survivors): 0/7
P-388 leukemia; 0.062 mg/kg ip
  % ILS (percent increase in life span): 45%
  MST (median survival time): 16 days
  cure (over 55 day survivors): 1/7
P-388 leukemia; 0.125 mg/kg ip
  % ILS (percent increase in life span): 136%
  MST (median survival time): 26 days
  cure (over 55 day survivors): 0/7
P-388 leukemia; 0.250 mg/kg ip
  % ILS (percent increase in life span): 55%
  MST (median survival time): 17 days
  cure (over 55 day survivors): 0/7
P-388 leukemia; 0.375 mg/kg ip
  MST (median survival time): 9 days
P-388 leukemia; four injections ip, qd 1-4
  minimal effective dose: 0.05 mg/kg
  therapeutic index: MTD/MED: 3
P-388 leukemia; [8]
  minimal effective dose: 0.0625 mg/kg
  therapeutic index: MTD/MED: 4
P-388 leukemia; ip, q4d 1, 5, 9
  activity in respect of % ILS, 1b versus 2b: approximately equiactive
  breadth of dose-response curve: very narrow
patients
  toxicity: acute and cumulative toxicity
[6]
  IC50: 0.06 µg/mL (≈ 0.0478 µM)
DNA [7]; drug 1.4 × 10^-4 M, DNA (P) 1.4 × 10^-3 M, 0.01 M phosphate buffer pH 7.0, EDTA, 5% dimethyl sulfoxide
  Tm (ΔTm = Tm of DNA-drug complex minus Tm of DNA): 7.1 ± 0.15 °C
DNA [7]; thermal denaturation, words
  DNA melting profile / ΔTm character of the DNA complex: sharp and smooth
